Measured values published in patent US20250090554A1, “A METHOD OF TREATING DEPRESSION BY IMMUNE MODULATION” (MYND LIFE SCIENCES INC., priority 2021, published 2025).

Tests used:
ABCF1 [1] = test: ABCF1 real time RT-PCR in RAW macrophage cell line treated with drugs; type: cell-based, murine
Experimental: (§1) FIG. 1 illustrates that Escitalopram induces ABCF1 in a Macrophage cell line: RAW macrophages were plated at 1×10^5 cells/well and cultured for 2 days. The cells were incubated with 0.3 mM Escitalopram for 1 hour, and then harvested for total RNA, which was extracted for real time RT-PCR specific for ABCF1 and IL-4. CT values were normalized with CT value for the housekeeping gene from the DMSO control. The difference in the expression after drug treatment is consistent with polarization towards an M2-like phenotype (data were consistent in 3 separate experiments).
FIG. 2 illustrates the effect of psylocibin, psylocin and their analogs on ABCF1 transcription in a macrophage cell line. Briefly, the Macrophage cell line RAW264.7 (ATCC) were grown to 80% confluency in growth media (DMEM+10% FBS+glutamine). Dilutions of psylocibin, psylocin and their analogs were made at desired final concentrations for a Dose response experiment. The concentrations' used for this experiment are: 10 nM, 100 nM, 500 nM for Psilocin, Psylocibin, 4-Acetoxy-N, N-dimthyltryptamine, O-Acetyl Psilocin Fumerate, and 4-acetoxyindole. The cells were incubated for 2 hours and then harvested for total RNA, which was extracted for real time RT-PCR specific for ABCF1. Untreated cells were used as negative control and Escitalopram at 0.3 mM was used as a positive control to activate ABCF1 expression for all the experiments. ES=escitalopram; PSYB=Psylocibin; PSIC=Psilocin; DMT=4-Acetoxy-N, N-dimthyltryptamine; APF=O-Acetyl Psilocin Fumerate, and AOI=4-acetoxyindole.
• 1. Macrophage cell line RAW264.7 (ATCC) were grown to 80% confluency in growth media (DMEM+10% FBS+glutamine). • 2. Dilutions of the drugs were made at desired final concentrations for a Dose response experiment. The concentrations' used for this experiment are: 10 nM, 100 nM, 500 nM for Psilocin, Psylocibin, 4-Acetoxy-N, N-dimthyltryptamine, O-Acetyl Psilocin Fumerate, and 4-acetoxyindole. • 3. A time course response experiment was done for the above stated drugs at concentrations mentioned above (10 nM, 100 nM, 500 nM). The time points chosen were 0, 30 mins, 2 hours and 24 hour. • 4. Untreated cells were used as negative control and Escitalopram at 0.3 mM was used as a positive control to activate ABCF1 expression for all the experiments. Analysis by qPCR:
• 1. Post treatment with drugs at different time points, the reaction was stopped by removing the media with the drug. Cells were then collected and RNA was isolated from these. • 2. After checking the quality of the RNA, cDNA was generated and qPCR was run with ABCF1 primers as the target gene and GAPDH as the house keeping gene. • 3. Normalized against the expression level of GAPDH, the fold change expression level of ABCF1 was calculated and tabulated for all treatment conditions.

ABCF1 [2] = test: ABCF1 expression in bone marrow after in vivo drug treatment of mice; design: species or system mice (C57Bl/6); conditions: for ABCF1 expression levels increased in bone marrow (fold): 30 mins treatment in vivo
Experimental: • Species strain: C57Bl/6 • Tissues collected: Brain, Bone marrow, PBMC • Drug treatment: • a. 30 minutes Drug treatment (PBS control, Escitalopram 50 mg/kg, Psilocybin 25 mg/kg) • b. 30 minutes Drug treatment after 30 minutes LPS stimulation (PBS control, Escitalopram 50 mg/kg, O-Acetyl Psilocin Fumarate (APF) 25 mg/kg, 4-AcetoxyIndole (AOI) 2.5 mg/kg, 4-AcO-DET (AODET) 25 mg/kg) • Method: • Weighed and injected the drug into the mice by Intraperitoneal injection. • Euthanized the mice 30 minutes after injections with isoflurane and CO2 • Post cervical Dislocation performed cardiac puncture to collect the whole blood from mice. • Opened the cephalic bone to collect the whole brain. • Removed the skin and muscles, took out both femur and tibia for bone marrow collection. • Tissue process procedures: • Brain—flash frozen and stored hemisphere in-80 for further molecular experiments and sent another part with buffer for sequencing. The frozen Brains were Dounce-homogenized. […]

ABCF1 [3] = conditions: peripheral blood mononuclear cells of patients; cited from earlier work
ABCF1 [4] = test: ABCF1 expression in whole brain after in vivo drug treatment of mice; design: species or system mice (C57Bl/6); conditions: Escitalopram 50 mg/kg, psilocybin 25 mg/kg, 30 minutes
IL-4 = IL-4 real time RT-PCR in RAW macrophages treated with Escitalopram; type: cell-based, murine; conditions: FIG. 1: 0.3 mM Escitalopram for 1 hour
Experimental: as §1

Structure (SMILES)	ABCF1 expression levels increased (fold) (ABCF1 [1]; RAW264.7 cells, post 2 hr treatment with 100 nM)	ABCF1 expression levels increased in bone marrow (fold) (ABCF1 [2])	ABCF1 transcription in PBMCs of patients responding to treatment (ABCF1 [3])	ABCF1 expression in RAW macrophages cell cultures (ABCF1 [1]; Escitalopram 0.6 nM, Psilocybin 500 nM, 2 hrs, vs untreated control)	ABCF1 induction in a macrophage cell line (ABCF1 [1]; RAW macrophages, 0.3 mM Escitalopram, 1 hour)	ABCF1 induction (fold) in the macrophage cell line (ABCF1 [1]; RAW macrophages, FIG. 1: 0.3 mM Escitalopram for 1 hour)	ABCF1 expression in the whole brain (ABCF1 [4])	ABCF1 expression in the bone marrow (ABCF1 [2]; Escitalopram 50 mg/kg, psilocybin 25 mg/kg, mice, 30 minutes)	IL-4 induction (fold) in the macrophage cell line (IL-4)
CCCCCc1cc(O)c(C/C=C(\C)CCC=C(C)C)c(O)c1 [Cannabigerol]	8 folds								
CN(C)CCc1c[nH]c2cccc(OP(=O)(O)O)c12 [Psilocybin, [3-(2-Dimethylaminoethyl)-1H-indol-4-yl] dihydrogen phosphate]		2 folds							
CN(C)CCC[C@@]1(c2ccc(F)cc2)OCc2cc(C#N)ccc21 [Escitalopram]		6 folds	increased the transcription	induces ABCF1 expression	induces ABCF1	approximately 20 fold	induce ABCF1 expression	induces ABCF1 expression	approximately 5 fold
